The values that follow come from ChEMBL document CHEMBL1201862, “PubChem BioAssay data set” (2004).

Assay [1] deals with Sphingosine 1-phosphate receptor 1 (Homo sapiens, UniProt P21453). In words: Fluorescence-based counterscreen assay for S1P4 agonists: Cell-based dose response high throughput screening assay to identify agonists of the Sphingosine 1-Phosphate Receptor 1 (S1P1). [Related pubchem assays (depositor defined):AID1509, AID1523, AID1801, AID463107, AID463118, AID463119, AID463122, AID463123, AID463129, AID463225, AID504400, AID504460]. It is filed as functional.
Sphingosine 1-phosphate receptor 1, sequence (P21453 whole entry): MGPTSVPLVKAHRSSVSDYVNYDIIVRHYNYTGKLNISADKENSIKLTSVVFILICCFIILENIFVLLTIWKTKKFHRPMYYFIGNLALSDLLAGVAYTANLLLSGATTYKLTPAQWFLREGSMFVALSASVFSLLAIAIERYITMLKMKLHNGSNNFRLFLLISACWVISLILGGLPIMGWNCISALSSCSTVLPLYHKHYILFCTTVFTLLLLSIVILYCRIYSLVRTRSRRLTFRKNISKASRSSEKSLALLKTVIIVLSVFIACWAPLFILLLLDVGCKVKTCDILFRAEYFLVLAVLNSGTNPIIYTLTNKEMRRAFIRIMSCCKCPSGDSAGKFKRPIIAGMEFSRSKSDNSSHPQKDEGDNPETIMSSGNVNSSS

In assay [2] the test system is Streptococcus sp. 'group A'. Put plainly: Streptococcus pyogenes SK(-)GAS viability under kanamycin – luminescence, BacTiterGlo, confirmation, counter-screen for streptokinase expression inhibitor project, dose response (AID 1900). Type of assay: functional, organism-based. (The purpose of a counterscreen is to sort out artefacts and off-target activity.)
Another assay addresses T1, Streptokinase A (Streptococcus pyogenes serotype M1, UniProt P10520).
T1 sequence (P10520 whole entry): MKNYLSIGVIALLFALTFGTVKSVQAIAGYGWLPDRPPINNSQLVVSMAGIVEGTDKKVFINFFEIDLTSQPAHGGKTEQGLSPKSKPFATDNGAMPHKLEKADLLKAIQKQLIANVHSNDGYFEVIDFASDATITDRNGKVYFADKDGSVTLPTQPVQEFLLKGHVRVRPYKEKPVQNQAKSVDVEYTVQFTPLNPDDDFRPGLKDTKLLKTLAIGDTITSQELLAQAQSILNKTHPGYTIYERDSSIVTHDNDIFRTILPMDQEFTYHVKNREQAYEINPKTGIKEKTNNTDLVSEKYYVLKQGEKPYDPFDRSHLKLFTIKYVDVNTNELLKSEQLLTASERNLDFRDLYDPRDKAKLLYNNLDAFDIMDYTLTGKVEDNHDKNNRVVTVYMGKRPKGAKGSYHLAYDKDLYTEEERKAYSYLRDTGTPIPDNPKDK
In words: viability-normalized secreted streptokinase activity reduction – plasminogen activation absorbance, OD405, dose response (AID 1914).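 Further: secreted streptokinase activity via plasminogen activation per viability signal from cell pellet.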 Type of assay: functional, Streptococcus pyogenes M1 GAS.

Assay [3] has as its target Sphingosine 1-phosphate receptor 4 (Homo sapiens, UniProt O95977). Put plainly: Fluorescence dose response cell-based high throughput screening assay for agonists of the Sphingosine 1-Phosphate Receptor 4 (S1P4). [Related pubchem assays: 1509 (Primary screen.), 1523 (Confirmation screen in triplicates.)]. Type of assay: functional.
Another assay relates to Streptococcus. Put plainly: GAS UMAA2166 growth inhibition – luminescence, BacTiterGlo, counter-screen for streptokinase expression inhibitor project, dose response (AID 1915).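 Further: potency for reduction of bacterial viability or growth.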 Type of assay: functional, organism-based.
Assay [4] has as its target T2, RNA-binding protein pos-1 (Caenorhabditis elegans, UniProt G5EF15).
T2 sequence (G5EF15 whole entry): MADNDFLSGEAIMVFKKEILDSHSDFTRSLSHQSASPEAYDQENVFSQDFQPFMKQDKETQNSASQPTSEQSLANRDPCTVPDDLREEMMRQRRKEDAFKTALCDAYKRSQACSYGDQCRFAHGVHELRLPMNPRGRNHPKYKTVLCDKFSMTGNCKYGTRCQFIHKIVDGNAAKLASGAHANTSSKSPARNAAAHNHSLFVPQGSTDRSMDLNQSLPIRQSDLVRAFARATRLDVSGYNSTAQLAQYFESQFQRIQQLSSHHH
Put plainly: disruptors of C. elegans POS-1 RNA interaction – biochemical, fluorescence polarization, dose response (AID 1964).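 Further: purified POS-1 fused to maltose binding protein made in E. coli; potency of compounds blocking POS-1 binding to fluorescent RNA.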 A general note: Polarisation of emitted light reports the rotation of a fluorescent probe.

Assay [5] addresses T3, Zinc finger protein mex-5 (Caenorhabditis elegans, UniProt Q9XUB2).
T3 sequence (Q9XUB2 whole entry): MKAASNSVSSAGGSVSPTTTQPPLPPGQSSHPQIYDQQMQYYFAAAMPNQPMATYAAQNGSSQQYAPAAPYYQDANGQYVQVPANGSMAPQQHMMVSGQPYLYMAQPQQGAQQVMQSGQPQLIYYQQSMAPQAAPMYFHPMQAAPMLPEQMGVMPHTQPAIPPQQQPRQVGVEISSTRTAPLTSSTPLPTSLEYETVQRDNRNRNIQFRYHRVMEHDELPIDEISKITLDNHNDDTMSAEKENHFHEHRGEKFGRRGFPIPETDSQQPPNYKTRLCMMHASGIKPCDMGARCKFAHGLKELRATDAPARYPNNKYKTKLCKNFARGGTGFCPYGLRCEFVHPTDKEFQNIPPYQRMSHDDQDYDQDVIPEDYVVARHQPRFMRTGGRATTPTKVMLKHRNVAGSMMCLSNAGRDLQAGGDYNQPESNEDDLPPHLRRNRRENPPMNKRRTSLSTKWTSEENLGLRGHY
In words: potency of MEX-5 RNA-binding blockers – biochemical, C. elegans, fluorescence polarization, dose response (AID 1960).

Assay [6] deals with Lysine-specific demethylase 4C (Homo sapiens, UniProt Q9H3R0). In words: inhibition of JMJD2C H3K9me3 demethylation – biochemical, DELFIA europium, cherry-picked samples, dose response (AID 488835). Type of assay: functional.
Lysine-specific demethylase 4C, sequence (Q9H3R0 whole entry): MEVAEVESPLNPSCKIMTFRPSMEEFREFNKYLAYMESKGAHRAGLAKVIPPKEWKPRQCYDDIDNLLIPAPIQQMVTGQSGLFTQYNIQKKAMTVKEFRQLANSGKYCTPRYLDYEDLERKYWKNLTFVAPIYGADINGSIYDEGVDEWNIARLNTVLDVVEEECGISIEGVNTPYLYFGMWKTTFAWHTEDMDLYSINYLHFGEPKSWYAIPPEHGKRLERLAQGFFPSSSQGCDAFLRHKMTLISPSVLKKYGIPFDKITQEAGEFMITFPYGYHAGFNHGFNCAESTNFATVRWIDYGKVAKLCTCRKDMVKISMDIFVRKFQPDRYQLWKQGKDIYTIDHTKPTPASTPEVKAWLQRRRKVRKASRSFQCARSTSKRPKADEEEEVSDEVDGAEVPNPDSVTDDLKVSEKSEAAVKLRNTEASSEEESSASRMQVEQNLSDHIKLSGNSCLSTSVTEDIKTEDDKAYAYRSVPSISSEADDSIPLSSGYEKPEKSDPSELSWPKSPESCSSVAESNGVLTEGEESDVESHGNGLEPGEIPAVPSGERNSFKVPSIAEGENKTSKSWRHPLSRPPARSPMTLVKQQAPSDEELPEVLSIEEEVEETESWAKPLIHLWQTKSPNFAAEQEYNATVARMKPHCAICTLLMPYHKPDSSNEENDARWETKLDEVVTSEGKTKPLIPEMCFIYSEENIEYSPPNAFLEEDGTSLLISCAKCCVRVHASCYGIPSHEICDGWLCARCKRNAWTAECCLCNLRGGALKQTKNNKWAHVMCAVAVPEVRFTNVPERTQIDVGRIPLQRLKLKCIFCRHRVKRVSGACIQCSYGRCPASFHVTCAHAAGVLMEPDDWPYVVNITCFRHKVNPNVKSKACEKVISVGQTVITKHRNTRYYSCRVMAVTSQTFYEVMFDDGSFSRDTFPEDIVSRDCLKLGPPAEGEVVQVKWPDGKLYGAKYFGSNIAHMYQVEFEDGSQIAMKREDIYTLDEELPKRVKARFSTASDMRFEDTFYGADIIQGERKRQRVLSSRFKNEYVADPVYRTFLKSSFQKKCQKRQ
A short description of assay [7]: microbe, parasite or virus in culture. It is filed as functional. The following applies: Mycobacterium tuberculosis.
The nature of assay [8]: viability of PTEN-deleted HCT116 cells – cell-based, HCT116 PTEN knockout, dose response (AID 1047).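 Further: HCT116 colon tumor cells with PTEN knocked out; cells exposed to compound for 60 hours before readout; potency for loss of cell viability measured by luminescence.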 Type of assay: functional.
Assay [9] is described as follows: viability of HCT116 lacking mutant beta-catenin – cell-based, human colon tumor, dose response (AID 1045).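 Further: HCT116 colon tumor cells with beta catenin knocked out; cells exposed to compound for 60 hours.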 It is filed as functional.
The target in another assay is Exodeoxyribonuclease V (Escherichia coli (strain K12), UniProt P04993+P07648+P08394). Put plainly: RecBCD inhibition via phage-restricted bacterial growth – absorbance, V66 E. coli, mutant T4 phage, counter-screen for AddAB inhibitor project, dose response (AID 492957). Type of assay: functional, cell-based, Escherichia coli str. K-12 substr. MG1655.
Exodeoxyribonuclease V, sequence (P04993 whole entry): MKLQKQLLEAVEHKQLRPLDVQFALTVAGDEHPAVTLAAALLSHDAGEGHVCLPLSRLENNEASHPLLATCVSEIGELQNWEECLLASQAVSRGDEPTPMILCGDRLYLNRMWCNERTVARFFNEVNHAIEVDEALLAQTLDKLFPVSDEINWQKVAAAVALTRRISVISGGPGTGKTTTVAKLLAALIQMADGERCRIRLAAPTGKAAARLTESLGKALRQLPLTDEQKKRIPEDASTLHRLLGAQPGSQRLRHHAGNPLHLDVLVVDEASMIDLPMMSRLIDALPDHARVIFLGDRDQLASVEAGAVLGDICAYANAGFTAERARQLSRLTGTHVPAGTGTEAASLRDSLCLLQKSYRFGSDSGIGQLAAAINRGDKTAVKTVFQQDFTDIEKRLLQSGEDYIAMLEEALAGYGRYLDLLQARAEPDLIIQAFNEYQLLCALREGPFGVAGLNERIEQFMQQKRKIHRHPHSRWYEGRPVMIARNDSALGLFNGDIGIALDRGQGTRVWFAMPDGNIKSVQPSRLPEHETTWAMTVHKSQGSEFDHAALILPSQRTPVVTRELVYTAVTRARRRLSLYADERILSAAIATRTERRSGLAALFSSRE
Exodeoxyribonuclease V, sequence (P07648 whole entry): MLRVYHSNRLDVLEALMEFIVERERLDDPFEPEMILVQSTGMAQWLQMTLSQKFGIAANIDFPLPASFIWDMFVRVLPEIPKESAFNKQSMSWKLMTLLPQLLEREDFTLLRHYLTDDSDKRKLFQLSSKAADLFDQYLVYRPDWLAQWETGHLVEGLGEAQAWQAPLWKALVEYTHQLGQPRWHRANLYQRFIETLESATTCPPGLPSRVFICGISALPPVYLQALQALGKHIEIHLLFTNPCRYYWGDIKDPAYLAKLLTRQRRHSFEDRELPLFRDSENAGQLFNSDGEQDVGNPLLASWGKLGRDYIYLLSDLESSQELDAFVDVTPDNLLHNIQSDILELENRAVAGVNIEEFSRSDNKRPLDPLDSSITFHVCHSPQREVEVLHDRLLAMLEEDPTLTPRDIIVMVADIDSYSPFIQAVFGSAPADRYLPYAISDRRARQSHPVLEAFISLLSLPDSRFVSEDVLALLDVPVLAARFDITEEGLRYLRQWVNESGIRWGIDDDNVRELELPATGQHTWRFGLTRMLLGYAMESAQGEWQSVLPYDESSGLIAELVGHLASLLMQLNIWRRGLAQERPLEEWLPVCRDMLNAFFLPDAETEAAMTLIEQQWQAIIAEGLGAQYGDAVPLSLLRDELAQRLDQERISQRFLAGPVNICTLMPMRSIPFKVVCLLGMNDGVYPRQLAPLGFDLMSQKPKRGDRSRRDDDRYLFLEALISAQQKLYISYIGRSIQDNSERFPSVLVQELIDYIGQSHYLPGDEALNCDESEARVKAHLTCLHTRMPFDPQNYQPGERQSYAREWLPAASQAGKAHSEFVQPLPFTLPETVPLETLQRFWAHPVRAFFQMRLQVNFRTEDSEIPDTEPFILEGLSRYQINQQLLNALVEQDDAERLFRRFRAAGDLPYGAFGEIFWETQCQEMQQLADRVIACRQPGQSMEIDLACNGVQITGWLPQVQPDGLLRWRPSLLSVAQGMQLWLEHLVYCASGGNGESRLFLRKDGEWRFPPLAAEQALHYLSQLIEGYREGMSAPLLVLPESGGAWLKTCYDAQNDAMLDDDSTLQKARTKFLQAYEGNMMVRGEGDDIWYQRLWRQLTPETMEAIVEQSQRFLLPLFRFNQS
Exodeoxyribonuclease V, sequence (P08394 whole entry): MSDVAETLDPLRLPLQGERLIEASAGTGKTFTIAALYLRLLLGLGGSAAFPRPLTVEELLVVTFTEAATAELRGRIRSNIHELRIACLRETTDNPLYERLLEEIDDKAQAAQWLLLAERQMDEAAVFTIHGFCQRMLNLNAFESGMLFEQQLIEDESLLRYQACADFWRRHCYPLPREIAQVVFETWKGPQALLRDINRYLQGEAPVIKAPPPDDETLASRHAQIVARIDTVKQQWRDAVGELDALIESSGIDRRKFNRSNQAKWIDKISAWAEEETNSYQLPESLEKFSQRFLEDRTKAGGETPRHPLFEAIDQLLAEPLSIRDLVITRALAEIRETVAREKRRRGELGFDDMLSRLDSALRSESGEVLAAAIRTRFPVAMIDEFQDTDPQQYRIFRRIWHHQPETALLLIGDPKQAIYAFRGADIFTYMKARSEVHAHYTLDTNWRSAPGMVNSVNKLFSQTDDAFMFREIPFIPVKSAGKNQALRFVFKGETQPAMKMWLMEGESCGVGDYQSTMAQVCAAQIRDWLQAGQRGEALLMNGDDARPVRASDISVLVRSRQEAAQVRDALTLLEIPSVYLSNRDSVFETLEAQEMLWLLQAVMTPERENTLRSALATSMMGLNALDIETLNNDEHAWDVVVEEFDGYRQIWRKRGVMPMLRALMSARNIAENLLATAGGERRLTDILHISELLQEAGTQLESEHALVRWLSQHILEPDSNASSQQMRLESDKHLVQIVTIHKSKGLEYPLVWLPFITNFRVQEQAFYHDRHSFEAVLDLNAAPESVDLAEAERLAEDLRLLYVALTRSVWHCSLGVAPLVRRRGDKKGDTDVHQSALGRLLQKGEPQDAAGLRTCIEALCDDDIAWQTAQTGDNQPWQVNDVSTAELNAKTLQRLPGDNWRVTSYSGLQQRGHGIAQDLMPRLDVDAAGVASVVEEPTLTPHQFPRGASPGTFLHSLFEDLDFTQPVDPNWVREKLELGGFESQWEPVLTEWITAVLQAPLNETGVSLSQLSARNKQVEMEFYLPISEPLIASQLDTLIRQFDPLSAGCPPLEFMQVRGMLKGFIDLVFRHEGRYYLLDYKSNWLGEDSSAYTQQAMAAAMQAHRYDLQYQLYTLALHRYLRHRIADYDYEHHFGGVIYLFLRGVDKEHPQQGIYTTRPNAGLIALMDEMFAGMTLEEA
A short description of assay [10]: Luminescence Cell-Based Dose Retest to Confirm Inhibitors of Cancer Stem Cells. [Related pubchem assays (depositor defined):AID2717, AID2721]. It is filed as functional. Particulars: Homo sapiens.
Another assay has as its target Beta-galactosidase (Escherichia coli, UniProt Q8VNN2). In words: detection-enzyme interference by beta-gal modulators – biochemical, E. coli enzyme, set 3, artefact control for CCR6 antagonist project, dose response (AID 504712). It is filed as functional.
Assay [11] can be described thus: Counterscreen for AddAB inhibitors: absorbance-based bacterial cell-based high throughput dose response assay for inhibitors of bacterial viability. [Related pubchem assays (depositor defined):AID435030, AID449728, AID449731, AID488942, AID488955, AID488956]. It is filed as functional.
Assay [12] can be described thus: reduction of Shn3 3'UTR-driven luciferase in osteoblasts – cell-based, Clone20 osteoblasts, firefly luciferase, cherry-picked, dose response (AID 624132).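 Further: firefly luciferase luminescence from reporter carrying the Shn3 3'UTR in osteoblasts.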 Type of assay: functional.
A short description of assay [13]: loss of viability in HepG2 cells – cell-based, CellTiter-Glo, cherry-picked, cytotoxicity control for Shn3 inhibitor project, dose response (AID 624134). It is filed as functional. Background: ATP-based viability assays read luminescence as a measure of living cells.
The nature of assay [14]: non-specific 3'UTR reporter inhibition in Clone20-Shn3RL – cell-based, Renilla luciferase, cherry-picked, counter-screen for Shn3 inhibitor project, dose response (AID 624133). Type of assay: functional.

Activity calls are given as the source filed them.

Sphingosine 1-phosphate receptor 4, sequence (O95977 whole entry): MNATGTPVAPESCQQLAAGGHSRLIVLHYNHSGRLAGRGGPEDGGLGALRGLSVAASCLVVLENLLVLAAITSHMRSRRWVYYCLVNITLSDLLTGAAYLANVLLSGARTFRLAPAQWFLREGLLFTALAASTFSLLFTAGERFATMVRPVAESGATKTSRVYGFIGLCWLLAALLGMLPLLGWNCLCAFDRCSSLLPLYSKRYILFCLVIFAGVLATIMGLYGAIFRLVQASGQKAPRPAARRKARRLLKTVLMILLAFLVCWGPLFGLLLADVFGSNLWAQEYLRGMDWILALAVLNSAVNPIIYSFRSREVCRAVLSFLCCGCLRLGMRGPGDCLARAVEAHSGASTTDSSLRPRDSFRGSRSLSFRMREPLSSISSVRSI

The term EC50 denotes the concentration at which the effect is half-maximal. `CC(C)C[C@H](NC(=O)c1[nH]cnc1C(=O)NCc1ccccc1)C(=O)OCc1ccccc1`: the EC50 is > 49.8 µM (inactive) in [1]; 3.55 µM (active) in assay [2]; > 150 µM (not active) at Streptokinase A; 14.4 µM (not active) in assay [3]; 20.5 µM (active) in the assay with Streptococcus.
One may read the AC50 as the midpoint of the concentration-response curve, whichever way the signal moves. Consider `C=CCN1C(=O)NC(=O)/C(=C/c2ccc(OC)c(CSc3ccccn3)c2)C1=O`, for which the EC50 in [4] and in assay [5] was > 300 µM (not active) in each case. Also, the AC50 in assay [6] was 40.1 µM (active).
The term IC50 denotes the concentration that inhibits the measured activity by half. For `O=C(Nc1ccc([N+](=O)[O-])cc1)Nc1ccc(OC(F)F)c(Cl)c1`, the CC50 in assay [7] was 2.83 µM (active). In addition, the EC50 is 1.37 µM (active) in [8] and 1.9 µM (active) in assay [9]. Further, the IC50 was > 119 µM (inactive) on Exodeoxyribonuclease V, > 66.6 µM (inactive) on Beta-galactosidase and > 119 µM (inactive) in assay [11]. Moreover, the AC50 in [10] is 1.22 µM (active); in assay [12], 3.59 µM (active); in assay [13], 6.24 µM (active); in assay [14], 4.77 µM (active).
